{"source": "ChEMBL document CHEMBL5096241", "about": "“Discovery of 3-Aminopyrazole Derivatives as New Potent and Orally Bioavailable AXL Inhibitors” (J Med Chem, 2022)", "key": {"[1]": {"experiment": "Oral bioavailability in Sprague-Dawley rat at 25 mg/kg measured for 96 hrs by LC-MS analysis", "type": "ADME, organism-based", "conditions": "in vivo"}, "[2]": {"experiment": "Toxicity in BALB/c mouse implanted with mouse 4T1 cells assessed as body weight loss at 50 to 100 mg/kg, po qd administered for 14 consecutive days and measured every 2 days", "type": "organism-based", "conditions": "in vivo, 336 h, dose 50-100 mg/kg, time 14 day"}, "[3]": {"target": "T1, Platelet-derived growth factor receptor beta (Homo sapiens, UniProt P09619)", "T1 sequence (P09619 whole entry)": "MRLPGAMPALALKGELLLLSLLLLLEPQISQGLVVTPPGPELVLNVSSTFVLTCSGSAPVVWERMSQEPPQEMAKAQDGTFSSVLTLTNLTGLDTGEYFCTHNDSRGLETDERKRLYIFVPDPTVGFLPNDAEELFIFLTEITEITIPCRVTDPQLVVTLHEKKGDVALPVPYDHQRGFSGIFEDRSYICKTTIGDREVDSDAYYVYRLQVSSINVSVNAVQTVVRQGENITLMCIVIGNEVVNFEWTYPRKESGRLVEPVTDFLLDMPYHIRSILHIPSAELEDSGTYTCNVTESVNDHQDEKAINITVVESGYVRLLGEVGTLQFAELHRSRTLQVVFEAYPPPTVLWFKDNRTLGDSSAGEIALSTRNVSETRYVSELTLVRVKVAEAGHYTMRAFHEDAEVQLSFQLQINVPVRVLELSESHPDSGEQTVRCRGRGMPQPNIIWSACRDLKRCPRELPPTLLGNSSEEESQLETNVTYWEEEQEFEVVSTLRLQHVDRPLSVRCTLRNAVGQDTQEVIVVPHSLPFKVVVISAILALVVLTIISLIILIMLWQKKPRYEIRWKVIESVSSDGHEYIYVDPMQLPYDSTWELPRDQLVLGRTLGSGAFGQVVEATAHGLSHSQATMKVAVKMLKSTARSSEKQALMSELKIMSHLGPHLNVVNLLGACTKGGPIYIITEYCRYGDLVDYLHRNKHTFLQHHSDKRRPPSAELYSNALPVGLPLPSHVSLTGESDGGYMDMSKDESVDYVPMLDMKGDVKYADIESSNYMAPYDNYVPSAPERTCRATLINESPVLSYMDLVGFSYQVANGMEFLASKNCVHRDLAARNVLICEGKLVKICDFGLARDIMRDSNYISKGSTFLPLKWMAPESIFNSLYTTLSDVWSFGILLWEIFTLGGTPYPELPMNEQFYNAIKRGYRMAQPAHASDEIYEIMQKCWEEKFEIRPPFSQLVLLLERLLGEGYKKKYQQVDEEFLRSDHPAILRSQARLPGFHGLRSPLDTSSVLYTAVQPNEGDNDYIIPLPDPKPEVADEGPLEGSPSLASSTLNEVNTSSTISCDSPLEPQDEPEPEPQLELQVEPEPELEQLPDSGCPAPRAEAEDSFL", "experiment": "Inhibition of PDGFRB (unknown origin)"}, "[4]": {"target": "T2, Tyrosine-protein kinase receptor UFO (Homo sapiens, UniProt P30530)", "T2 sequence (P30530 whole entry)": "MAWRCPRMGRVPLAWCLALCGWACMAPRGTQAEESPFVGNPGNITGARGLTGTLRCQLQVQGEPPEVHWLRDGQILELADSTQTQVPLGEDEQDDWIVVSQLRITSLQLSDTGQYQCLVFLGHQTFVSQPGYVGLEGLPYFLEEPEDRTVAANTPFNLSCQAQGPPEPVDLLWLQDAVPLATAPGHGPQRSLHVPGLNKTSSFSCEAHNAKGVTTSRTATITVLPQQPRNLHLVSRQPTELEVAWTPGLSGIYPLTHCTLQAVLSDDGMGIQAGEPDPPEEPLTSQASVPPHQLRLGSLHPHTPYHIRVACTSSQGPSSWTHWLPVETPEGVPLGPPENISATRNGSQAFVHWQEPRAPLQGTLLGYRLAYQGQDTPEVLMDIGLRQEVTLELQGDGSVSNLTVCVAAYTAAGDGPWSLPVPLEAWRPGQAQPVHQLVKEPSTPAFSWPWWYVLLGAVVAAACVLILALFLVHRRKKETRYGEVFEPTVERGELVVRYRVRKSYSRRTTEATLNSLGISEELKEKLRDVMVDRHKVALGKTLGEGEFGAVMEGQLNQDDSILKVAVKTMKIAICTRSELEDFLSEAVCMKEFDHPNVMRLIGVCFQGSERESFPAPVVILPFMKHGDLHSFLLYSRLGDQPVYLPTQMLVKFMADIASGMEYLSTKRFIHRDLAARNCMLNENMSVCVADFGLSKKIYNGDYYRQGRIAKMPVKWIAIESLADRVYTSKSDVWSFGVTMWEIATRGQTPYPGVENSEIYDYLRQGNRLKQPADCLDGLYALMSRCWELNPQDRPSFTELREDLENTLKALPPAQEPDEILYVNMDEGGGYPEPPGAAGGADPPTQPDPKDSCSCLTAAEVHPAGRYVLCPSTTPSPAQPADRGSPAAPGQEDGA", "experiment": "Inhibition of recombinant AXL (unknown origin) using poly (Glu,Tyr) 4:1 as substrate incubated for 60 mins in presence of ATP by ELISA"}, "[5]": {"test_system": "BaF3", "experiment": "Antiproliferative activity against mouse BaF3 cells transfected with TEL-AXL assessed as inhibition of cell growth incubated for 72 hrs", "type": "functional, cell-based", "conditions": "BaF3, 72 h"}, "[6]": {"target": "Mitogen-activated protein kinase kinase kinase kinase 5 (Homo sapiens, UniProt Q9Y4K4)", "sequence (Q9Y4K4 whole entry)": "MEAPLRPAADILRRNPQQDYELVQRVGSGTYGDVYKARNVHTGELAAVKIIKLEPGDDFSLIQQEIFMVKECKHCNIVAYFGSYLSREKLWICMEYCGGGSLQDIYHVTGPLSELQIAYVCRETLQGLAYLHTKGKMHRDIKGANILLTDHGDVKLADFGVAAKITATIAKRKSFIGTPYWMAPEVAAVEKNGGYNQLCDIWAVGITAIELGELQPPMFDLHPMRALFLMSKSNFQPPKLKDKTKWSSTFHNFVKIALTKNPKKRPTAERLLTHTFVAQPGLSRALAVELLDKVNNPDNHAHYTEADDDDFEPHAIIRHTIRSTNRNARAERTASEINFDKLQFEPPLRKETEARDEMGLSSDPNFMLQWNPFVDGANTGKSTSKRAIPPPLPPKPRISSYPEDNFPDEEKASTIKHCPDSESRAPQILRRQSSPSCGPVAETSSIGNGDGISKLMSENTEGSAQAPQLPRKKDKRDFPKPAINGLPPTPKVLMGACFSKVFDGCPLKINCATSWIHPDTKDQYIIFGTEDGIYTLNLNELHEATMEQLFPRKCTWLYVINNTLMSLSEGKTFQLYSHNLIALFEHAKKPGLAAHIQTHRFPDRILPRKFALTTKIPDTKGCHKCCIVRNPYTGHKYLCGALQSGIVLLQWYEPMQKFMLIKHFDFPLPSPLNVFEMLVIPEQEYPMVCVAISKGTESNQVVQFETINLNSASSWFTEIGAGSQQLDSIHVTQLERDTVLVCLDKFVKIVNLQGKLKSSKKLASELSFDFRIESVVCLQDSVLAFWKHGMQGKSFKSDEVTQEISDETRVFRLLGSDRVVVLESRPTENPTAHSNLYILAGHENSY", "experiment": "Binding affinity to MAP4K5 (unknown origin) assessed as dissociation constant by competition binding assay"}, "[7]": {"test_system": "MDA-MB-231", "experiment": "Inhibition of TGF-beta induced epithelial mesenchymal transition process in human metastatic MDA-MB-231 cells assessed as restoration of E-cadherin expression incubated for 3 days by Western blot analysis", "type": "functional, cell-based", "conditions": "dose 0.11-3 µM, time 3.0 day, DDE = dose-dependent effect"}, "[8]": {"target": "Vascular endothelial growth factor receptor 3 (Homo sapiens, UniProt P35916)", "experiment": "Binding affinity to FLT4 (unknown origin) assessed as dissociation constant by competition binding assay"}, "[9]": {"target": "Tyrosine-protein kinase receptor UFO (Homo sapiens) (UniProt P30530)", "experiment": "Inhibition of AXL phosphorylation at Tyr702 residue in human MDA-MB-231 cells measured after 6 hrs by Western blot analysis", "type": "cell-based", "conditions": "dose 0.8-500 nM, DDE = dose-dependent effect"}, "[10]": {"experiment": "Cmax in Sprague-Dawley rat at 25 mg/kg, po measured for 96 hrs by LC-MS analysis", "type": "ADME, organism-based", "set-up": "dose 25 mg/kg, time 96 hrs, route po", "conditions": "in vivo"}, "[11]": {"experiment": "Observed MRTinfinity in Sprague-Dawley rat at 25 mg/kg, po measured for 96 hrs by LC-MS analysis", "type": "ADME, organism-based", "conditions": "in vivo"}, "[12]": {"target": "T1, Platelet-derived growth factor receptor beta", "experiment": "Binding affinity to PDGFRB (unknown origin) assessed as dissociation constant by competition binding assay"}, "[13]": {"target": "Proto-oncogene tyrosine-protein kinase receptor Ret (Homo sapiens, UniProt P07949)", "experiment": "Binding affinity to RET (unknown origin) assessed as dissociation constant by competition binding assay"}, "[14]": {"target": "Hepatocyte growth factor receptor (Homo sapiens, UniProt P08581)", "experiment": "Binding affinity to MET (unknown origin) assessed as dissociation constant by competition binding assay"}, "[15]": {"test_system": "4T1", "experiment": "Antitumor activity against metastatic mouse 4T1 cells implanted in BALB/c mouse assessed as tumor growth inhibition at 50 mg/kg, po qd administered for 14 consecutive days and measured every 2 days by electronic caliper method relative to control", "type": "functional", "conditions": "4T1, 336 h, time 14 day, read-out: TGI"}, "[16]": {"target": "Macrophage-stimulating protein receptor (Homo sapiens, UniProt Q04912)", "sequence (Q04912 25-304 limits assumed)": "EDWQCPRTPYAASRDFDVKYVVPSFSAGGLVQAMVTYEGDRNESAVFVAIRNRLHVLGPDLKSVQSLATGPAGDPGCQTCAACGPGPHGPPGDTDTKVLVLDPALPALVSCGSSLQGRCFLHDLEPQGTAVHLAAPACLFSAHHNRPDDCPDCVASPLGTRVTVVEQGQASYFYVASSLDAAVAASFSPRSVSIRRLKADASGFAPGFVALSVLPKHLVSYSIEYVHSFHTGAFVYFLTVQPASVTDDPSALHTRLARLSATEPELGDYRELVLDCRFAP", "sequence (Q04912 310-1400 limits assumed)": "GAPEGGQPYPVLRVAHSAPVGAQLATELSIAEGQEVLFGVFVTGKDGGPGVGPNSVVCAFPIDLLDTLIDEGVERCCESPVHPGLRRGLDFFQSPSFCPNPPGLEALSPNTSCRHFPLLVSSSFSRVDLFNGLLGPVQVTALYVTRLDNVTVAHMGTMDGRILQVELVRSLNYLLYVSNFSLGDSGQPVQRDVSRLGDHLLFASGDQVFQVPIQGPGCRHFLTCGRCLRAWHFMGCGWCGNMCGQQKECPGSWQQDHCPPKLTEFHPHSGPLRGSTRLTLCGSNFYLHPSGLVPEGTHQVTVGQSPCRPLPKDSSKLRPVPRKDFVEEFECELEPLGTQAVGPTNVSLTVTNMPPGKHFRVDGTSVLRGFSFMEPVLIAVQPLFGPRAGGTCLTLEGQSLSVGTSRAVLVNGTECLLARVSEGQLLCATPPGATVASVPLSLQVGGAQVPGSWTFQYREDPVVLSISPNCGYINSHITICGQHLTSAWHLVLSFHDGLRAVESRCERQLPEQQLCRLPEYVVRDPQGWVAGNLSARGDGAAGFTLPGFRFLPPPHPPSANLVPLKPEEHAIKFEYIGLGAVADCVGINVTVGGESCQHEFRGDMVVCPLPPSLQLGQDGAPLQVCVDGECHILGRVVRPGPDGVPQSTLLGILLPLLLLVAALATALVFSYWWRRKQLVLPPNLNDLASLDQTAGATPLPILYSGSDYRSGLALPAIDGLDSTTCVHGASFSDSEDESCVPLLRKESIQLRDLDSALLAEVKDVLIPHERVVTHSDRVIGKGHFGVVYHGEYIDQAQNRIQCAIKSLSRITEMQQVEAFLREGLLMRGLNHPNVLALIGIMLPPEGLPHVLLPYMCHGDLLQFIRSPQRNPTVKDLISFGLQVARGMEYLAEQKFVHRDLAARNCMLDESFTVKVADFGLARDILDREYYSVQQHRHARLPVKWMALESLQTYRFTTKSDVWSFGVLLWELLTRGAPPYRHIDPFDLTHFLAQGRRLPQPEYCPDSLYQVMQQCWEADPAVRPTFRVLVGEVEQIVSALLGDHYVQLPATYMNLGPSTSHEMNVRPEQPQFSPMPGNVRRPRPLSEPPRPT", "experiment": "Binding affinity to […] (unknown origin) assessed as dissociation constant by competition binding assay"}, "[17]": {"experiment": "Observed AUCinfinity in Sprague-Dawley rat at 5 mg/kg, iv measured for 96 hrs by LC-MS analysis", "type": "ADME, organism-based", "set-up": "dose 5 mg/kg, time 96 hrs, route iv", "conditions": "in vivo"}, "[18]": {"experiment": "Inhibition of TGF-beta induced cell invasion in human MDA-MB-231 cells at 3 uM incubated for 24 hrs by crystal violet staining based transwell assay relative to control", "type": "functional"}, "[19]": {"experiment": "AUClast in Sprague-Dawley rat at 5 mg/kg, iv measured for 96 hrs by LC-MS analysis", "type": "ADME, organism-based", "set-up": "time 96 hrs, dose 5 mg/kg, route iv", "conditions": "in vivo"}, "[20]": {"target": "Angiopoietin-1 receptor (Homo sapiens, UniProt Q02763)", "sequence (Q02763 whole entry)": "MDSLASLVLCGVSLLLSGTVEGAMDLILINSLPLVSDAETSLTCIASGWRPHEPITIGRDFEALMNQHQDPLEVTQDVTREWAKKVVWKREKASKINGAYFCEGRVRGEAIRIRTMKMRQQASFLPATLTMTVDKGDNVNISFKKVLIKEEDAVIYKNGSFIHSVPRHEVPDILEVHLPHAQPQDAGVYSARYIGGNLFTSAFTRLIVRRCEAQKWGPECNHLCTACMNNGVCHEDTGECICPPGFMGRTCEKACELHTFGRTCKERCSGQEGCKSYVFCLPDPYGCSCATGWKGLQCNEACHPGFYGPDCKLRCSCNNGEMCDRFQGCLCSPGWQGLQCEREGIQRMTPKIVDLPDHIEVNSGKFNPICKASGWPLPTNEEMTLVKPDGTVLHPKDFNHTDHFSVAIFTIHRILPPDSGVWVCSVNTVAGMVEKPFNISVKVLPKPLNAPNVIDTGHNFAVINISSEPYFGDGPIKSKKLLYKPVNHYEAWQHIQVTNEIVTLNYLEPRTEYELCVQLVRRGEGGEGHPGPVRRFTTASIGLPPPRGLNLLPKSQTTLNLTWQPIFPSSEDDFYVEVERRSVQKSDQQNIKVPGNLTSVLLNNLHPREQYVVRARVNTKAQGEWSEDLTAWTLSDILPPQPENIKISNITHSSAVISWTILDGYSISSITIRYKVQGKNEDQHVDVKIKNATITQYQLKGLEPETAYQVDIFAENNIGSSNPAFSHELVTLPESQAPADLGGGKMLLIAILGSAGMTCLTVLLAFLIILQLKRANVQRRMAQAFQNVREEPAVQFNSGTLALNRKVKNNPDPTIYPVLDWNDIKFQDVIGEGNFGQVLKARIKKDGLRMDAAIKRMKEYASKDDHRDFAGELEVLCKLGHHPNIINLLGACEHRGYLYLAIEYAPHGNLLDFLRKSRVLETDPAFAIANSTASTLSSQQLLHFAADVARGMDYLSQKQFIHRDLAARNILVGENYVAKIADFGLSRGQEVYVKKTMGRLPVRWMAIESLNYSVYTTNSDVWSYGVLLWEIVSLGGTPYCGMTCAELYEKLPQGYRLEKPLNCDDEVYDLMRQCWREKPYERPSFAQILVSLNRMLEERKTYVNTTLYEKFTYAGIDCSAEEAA", "experiment": "Binding affinity to TIE2 (unknown origin) assessed as dissociation constant by competition binding assay"}, "[21]": {"experiment": "Observed AUCinfinity in Sprague-Dawley rat at 25 mg/kg, po measured for 96 hrs by LC-MS analysis", "type": "ADME, organism-based", "set-up": "dose 25 mg/kg, time 96 hrs, route po", "conditions": "in vivo"}, "[22]": {"experiment": "Half life in Sprague-Dawley rat at 5 mg/kg, iv measured for 96 hrs by LC-MS analysis", "type": "ADME, organism-based", "conditions": "in vivo"}, "[23]": {"test_system": "4T1", "experiment": "Inhibition of ERK phosphorylation in mouse 4T1 cells measured after 6 hrs by Western blot analysis", "type": "cell-based", "conditions": "dose 0.8-500 nM, DDE = dose-dependent effect"}, "[24]": {"test_system": "4T1", "experiment": "Antitumor activity against metastatic mouse 4T1 cells implanted in BALB/c mouse assessed as reduction in number of liver metastases at 100 mg/kg, po qd administered for 14 consecutive days by H & E staining based microscopic analysis (reference value: 24.7 +/- 6.7)", "type": "functional", "conditions": "time 14 day"}, "[25]": {"target": "Macrophage colony-stimulating factor 1 receptor (Homo sapiens, UniProt P07333)", "experiment": "Inhibition of CSF1R (unknown origin)"}, "[26]": {"experiment": "Observed MRTinfinity in Sprague-Dawley rat at 5 mg/kg, iv measured for 96 hrs by LC-MS analysis", "type": "ADME, organism-based", "conditions": "in vivo"}, "[27]": {"target": "T2, Tyrosine-protein kinase receptor UFO", "experiment": "Binding affinity to AXL (unknown origin) assessed as dissociation constant by competition binding assay"}, "[28]": {"target": "Receptor-type tyrosine-protein kinase FLT3 (Homo sapiens, UniProt P36888)", "experiment": "Binding affinity to FLT3 (unknown origin) assessed as dissociation constant by competition binding assay"}}}
{"smiles": "COc1cc2c(Oc3ccc(Nc4nn(C)cc4C(=O)NC4CCCCC4)cc3F)ccnc2cc1OCCCN1CCOCC1", "values": [{"measurement": "bioavailability", "setting": "[1]", "result": 14.4, "unit": "%"}, {"measurement": "Activity", "setting": "[2]", "result": "Non-Toxic"}, {"measurement": "IC50", "setting": "[3]", "result": "> 10000", "unit": "nM"}, {"measurement": "IC50", "setting": "[4]", "result": 1.6, "unit": "nM"}, {"measurement": "IC50", "setting": "[5]", "result": 4.7, "unit": "nM"}, {"measurement": "Kd", "setting": "[6]", "result": "> 1000", "unit": "nM"}, {"measurement": "inhibition", "setting": "[7]", "result": "Dde"}, {"measurement": "Kd", "setting": "[8]", "result": 19, "unit": "nM"}, {"measurement": "inhibition", "setting": "[9]", "result": "Dde"}, {"measurement": "Cmax", "setting": "[10]", "result": 888, "unit": "ng/mL"}, {"measurement": "MRT inf", "setting": "[11]", "result": 6.55, "unit": "h"}, {"measurement": "Kd", "setting": "[12]", "result": 2.3, "unit": "nM"}, {"measurement": "Kd", "setting": "[13]", "result": 600, "unit": "nM"}, {"measurement": "Kd", "setting": "[14]", "result": "> 1000", "unit": "nM"}, {"measurement": "inhibition in vivo at 50 mg/kg", "setting": "[15]", "result": 78, "unit": "%"}, {"measurement": "Kd", "setting": "[16]", "result": "> 1000", "unit": "nM"}, {"measurement": "AUC(0-inf)", "setting": "[17]", "result": 11700, "unit": "ng·h/mL"}, {"measurement": "inhibition at 3 µM", "setting": "[18]", "result": 70.4, "unit": "%"}, {"measurement": "AUC(0-t) at 96 h", "setting": "[19]", "result": 11700, "unit": "ng·h/mL"}, {"measurement": "Kd", "setting": "[20]", "result": 950, "unit": "nM"}, {"measurement": "AUC(0-inf)", "setting": "[21]", "result": 8630, "unit": "ng·h/mL"}, {"measurement": "half-life", "setting": "[22]", "result": 3.31, "unit": "h"}, {"measurement": "inhibition", "setting": "[23]", "result": "Dde"}, {"measurement": "Activity", "setting": "[24]", "result": 2.8}, {"measurement": "IC50", "setting": "[25]", "result": 26.7, "unit": "nM"}, {"measurement": "MRT inf", "setting": "[26]", "result": 1.82, "unit": "h"}, {"measurement": "Kd", "setting": "[27]", "result": 0.26, "unit": "nM"}, {"measurement": "Kd", "setting": "[28]", "result": 2.5, "unit": "nM"}]}
